Results as given in the NIST ThermoML archive (doi:10.1021/acs.jced.6b00543).
Numbers after ± are expanded uncertainties.

What was measured:
[1] = Crystal; DTA
[2] = Molar enthalpy of transition or fusion; details: Crystal; DSC

- Normal melting temperature [1]: 159.07 ± 0.53 °C
- Molar enthalpy of transition or fusion [2]: 7.08 ± 0.454 kcal/mol
Compound: C[C@@H]1O[C@@H](O[C@H]2[C@H](Oc3cc(O)c(C(=O)CCc4ccc(O)cc4)c(O)c3)O[C@H](CO)[C@@H](O)[C@@H]2O)[C@H](O)[C@H](O)[C@H]1O [naringin dihydrochalcone]
